From patent US20120095036A1, “NOVEL SUBSTITUTED INDAZOLE AND AZA-INDAZOLE DERIVATIVES AS GAMMA SECRETASE MODULATORS” (priority 2009, published 2012)
pIC50: −log10 of the molar value.

Tests used:
Aβtotal [1] = assay: Method 1: Aβtotal sandwich ELISA on media of SKNBE2 cells carrying APP 695 wild type; type: cell-based; details: Homo sapiens, SKNBE2 cells APP 695 wild type, 18 hours
Summary of the method: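 SKNBE2 cells expressing wild-type APP695 treated with compound for 18 h in Ultraculture; secreted Aβtotal measured by 6E10-capture/biotinylated 4G8 sandwich ELISA with fluorogenic peroxidase read-out. IC50 from 4-parameter fit, top/bottom fixed at 100/0, Hill slope 1; toxicity checked by WST-1.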

Aβ42 [2] = assay: Method 2: Aβ42 Alphalisa on supernatant of SKNBE2 cells carrying APP 695 wild type; type: cell-based; details: Homo sapiens, SKNBE2 cells APP 695 wild type, overnight
Summary of the method: (§1)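 SKNBE2 cells expressing wild-type APP695 (10^4/well) were incubated overnight at 37 °C with compound at several concentrations. Secreted Aβ42 (C-terminal/N-terminal antibody pair) and Aβtotal (N-terminal/4G8 pair) were measured by AlphaLISA in the supernatant. IC50 values came from 4-parameter fits of percent of untreated control.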

Aβtotal [3] = assay: Method 2: Aβtotal Alphalisa on supernatant of SKNBE2 cells carrying APP 695 wild type; type: cell-based; details: Homo sapiens, SKNBE2 cells APP 695 wild type, overnight
Summary of the method: as §1

Aβ42 [4] = assay: Method 1: Aβ42 sandwich ELISA on media of SKNBE2 cells carrying APP 695 wild type (γ-secretase-modulating activity); type: cell-based; details: Homo sapiens, SKNBE2 cells APP 695 wild type, 18 hours
Summary of the method: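 SKNBE2 cells expressing wild-type APP695 exposed to compounds for 18 h in Ultraculture with 1% glutamine. Secreted Aβ42 in media quantified by sandwich ELISA (C-terminal capture, biotinylated 3D6 detection, TMB, 450 nm). IC50 from 4-parameter fit, top/bottom fixed 100/0, Hill slope fixed 1; toxicity checked by WST-1.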

[5] = tested on: Notch-processing activity of the γ-secretase-complex; assay: Notch cell-free assay (NICD production from recombinant Notch substrate N99); type: biochemical, mouse; details: 1 nM of a test compound, 37° C. for 6 to 22 h, western blotting
Experimental: The Notch transmembrane domain is cleaved by gamma secretase to release Notch Intracellular C-terminal Domain (NICD).
To monitor the effect of compounds on NICD production, a recombinant Notch substrate (N99) was prepared. The Notch substrate, comprised of mouse Notch fragment (V1711-E1809), an N-terminal methionine and a C-terminal FLAG sequence ([…]), was expressed in E. coli and purified on a column containing an anti-FLAG M2 affinity matrix.
A typical Notch cell-free assay consisted of 0.3-0.5 nM Notch substrate, an enriched preparation of gamma secretase and 1 nM of a test compound (compound 45 of the present invention). Controls included a gamma secretase inhibitor (GSI), such as (2S)-N-[2-(3,5-difluorophenyl)acetyl]-L-alanyl-2-phenyl-glycine 1,1-dimethylethyl ester (DAPT) or (2S)-2-hydroxy-3-methyl-N-[(1S)-1-methyl-2-oxo-2-[[(1S)-2,3,4,5-tetrahydro-3-methyl-2-oxo-1H-3-benzazepin-1-yl]amino]ethyl]-butanamide (Semagacestat), and DMSO, the final concentration of DMSO being 1%. Recombinant Notch substrate was pre-treated with 17 μM DTT (1,4-dithiothreitol) and 0.02% SDS (Sodium Dodecyl Sulfate) and heated at 65° C. for 10 min. The mixture of substrate, gamma secretase and compound/DMSO was incubated at 37° C. for 6 to 22 hours (h). Six-hour incubation was sufficient to produce the maximal amount of NICD and the cleaved product remained stable for an additional 16 h. Reaction products were processed for SDS PAGE (Sodium Dodecyl Sulfate—Poly Acrylamide Gel Electrophoresis) and western blotting. Blots were probed with an anti-Flag M2 antibody, followed by LI-COR infrared secondary antibody, and analyzed with the Odyssey Infrared Imaging System (LI-COR® Biosciences).

Aβ42 [6] = assay: In vivo efficacy: Aβ42 lowering in brain (ELISA); parameters: species or system mouse; details: brain soluble fraction; typical protocol: single oral dose, overnight fasted animals, after four hours
Source text: (§2) To determine whether acute administration of an Aβ42 lowering agent would reduce Aβ42 levels in vivo, non-transgenic rodents, e.g. mice or rats were used. Alternatively, two to three month old Tg2576 mice expressing APP695 containing the “Swedish” variant can be used or a transgenic mouse model developed by Dr. Fred Van Leuven (K.U.Leuven, Belgium) and co-workers, with neuron-specific expression of a clinical mutant of the human amyloid precursor protein [V717I] (Moechars et al., 1999 J. Biol. Chem. 274, 6483). Young transgenic mice have high levels of Aβ in the brain but no detectable Aβ deposition. At approximately 6-8 months of age, the transgenic mice start to display spontaneous, progressive accumulation of β-amyloid (A13) in the brain, eventually resulting in amyloid plaques within the subiculum, hippocampus and cortex. Animals treated with the Aβ42 lowering agent were examined and compared to those untreated or treated with vehicle and brain levels of soluble Aβ42 and total Aβ would be quantitated by standard techniques, for example, using ELISA. Treatment periods varied from hours to days and were adjusted based on the results of the Aβ42 lowering once a time course of onset of effect could be established.
(§3) A typical protocol for measuring Aβ42 lowering in vivo is shown but it is only one of many variations that could be used to optimize the levels of detectable Aβ. For example, Aβ42 lowering compounds were formulated in 20% of Captisol® (a sulfobutyl ether of β-cyclodextrin) in water or 20% hydroxypropyl β cyclodextrin. The Aβ42 lowering agents were administered as a single oral dose or by any acceptable route of administration to overnight fasted animals. After four hours, the animals were sacrificed and Aβ42 levels were analysed.
(§4) Blood was collected by decapitation and exsanguinations in EDTA-treated collection tubes. Blood was centrifuged at 1900 g for 10 minutes (min) at 4° C. and the plasma recovered and flash frozen for later analysis. The brain was removed from the cranium and hindbrain. The cerebellum was removed and the left and right hemisphere were separated. The left hemisphere was stored at −18° C. for quantitative analysis of test compound levels. The right hemisphere was rinsed with phosphate-buffered saline (PBS) buffer and immediately frozen on dry ice and stored at −80° C. until homogenization for biochemical assays.
(§5) Mouse brains were resuspended in 10 volumes of 0.4% DEA (diethylamine)/50 mM NaCl pH 10 (for non-transgenic animals) or 0.1% 3-[(3-cholamidopropyl)-dimethyl-ammonio]-1-propanesulfonate (CHAPS) in tris buffered saline (TBS) (for transgenic animals) containing protease inhibitors (Roche-11873580001 or 04693159001) per gram of tissue, e.g. for 0.158 g brain, add 1.58 ml of 0.4% DEA. All samples were sonicated for 30 sec on ice at 20% power output (pulse mode). Homogenates were centrifuged at 221.300×g for 50 min. The resulting high speed supernatants were then transferred to fresh tubes and were optionally further purified before the next step. A portion of the supernatant was neutralized with 10% 0.5 M Tris-HCl and this was used to quantify Aβtotal.
(§6) The obtained supernatants were purified with Water Oasis HLB reverse phase columns (Waters Corp., Milford, Mass.) to remove non-specific immunoreactive material from the brain lysates prior subsequent Aβ detection. Using a vacuum manifold, all solutions were passed through the columns at a rate of approximately 1 ml/min, so the vacuum pressure was adjusted accordingly throughout the procedure. Columns were preconditioned with 1 ml of 100% MeOH, before equilibration with 1 ml of H2O, Non-neutralized brain lysates were loaded onto the columns. The loaded samples were then washed twice with the first wash performed with 1 ml of 5% MeOH, and the second wash with 1 ml of 30% MeOH. Finally, the Aβ was eluted from the columns and into 100×30 mm glass tubes, with a solution of 90% MeOH with 2% NH4OH. […]

Aβtotal [7] = assay: In vivo efficacy: Aβtotal in brain (ELISA); parameters: species or system mouse; details: brain soluble fraction; typical protocol: single oral dose, overnight fasted animals, after four hours
Source text: as §2, §3, §4, §5, §6

| pIC50 (Aβtotal [1]) | pIC50 (Aβ42 [2]) | pIC50 (Aβtotal [3]) | pIC50 (Aβ42 [4]) | melting point [°C] | Structure (SMILES) | effect on the Notch-processing activity of the γ-secretase-complex (production of NICD) [5] | Aβ42 (% Ctrl) _Mean (Aβ42 [6]) [% Ctrl] | Aβtotal (% Ctrl) _Mean (Aβtotal [7]) [% Ctrl] |
| --- | --- | --- | --- | --- | --- | --- | --- | --- |
| < 5.52 | 7.74 | 5.17 | 7.64 |  | COc1ccc(C)c(-n2nc3c(Nc4ccc(-c5cnc(C)o5)nc4)cccc3c2C)c1 [Compound 45, 2-(5-methoxy-2-methylphenyl)-3-methyl-N-[6-(2-methyl-5-oxazolyl)-3-pyridinyl]-2H-indazol-7-amine] | did not show an effect |  |  |
|  | 7.18 | < 5.00 |  | 206 | COc1nc(Nc2cccc3cn(CC(F)(F)F)nc23)ccc1-n1cnc(C)c1 [Compound 54, N-[6-methoxy-5-(4-methyl-1H-imidazol-1-yl)-2-pyridinyl]-2-(2,2,2-trifluoroethyl)-2H-indazol-7-amine] |  | 72 | 109 |
|  |  |  |  |  | C[C@H](NC(=O)Cc1cc(F)cc(F)c1)C(=O)NC(C(=O)OC(C)(C)C)c1ccccc1 (stereo partly drawn) [DAPT, (2S)-N-[2-(3,5-difluorophenyl)acetyl]-L-alanyl-2-phenyl-glycine 1,1-dimethylethyl ester] | blocked |  |  |
|  |  |  |  |  | CC(C)[C@H](O)C(=O)N[C@@H](C)C(=O)N[C@@H]1C(=O)N(C)CCc2ccccc21 [Semagacestat, (2S)-2-hydroxy-3-methyl-N-[(1S)-1-methyl-2-oxo-2-[[(1S)-2,3,4,5-tetrahydro-3-methyl-2-oxo-1H-3-benzazepin-1-yl]amino]ethyl]-butanamide] | blocked |  |  |
